Patent publication US20190142748A1 (priority 2016, published 2019)

Columns and labels:
[1] = ten patients; cited from earlier work
[2] = Chlorambucil stability in aqueous solution (LCMS area percent); format: physicochemical; details: chlorambucil in water (5% methanol)
[3] = oral; cited from earlier work
[4] = target: plasma proteins, specifically albumin (Homo sapiens, UniProt P02768); details: in vitro; cited from earlier work
[5] = cited from earlier work

Sequence of plasma proteins, specifically albumin (P02768 25-609): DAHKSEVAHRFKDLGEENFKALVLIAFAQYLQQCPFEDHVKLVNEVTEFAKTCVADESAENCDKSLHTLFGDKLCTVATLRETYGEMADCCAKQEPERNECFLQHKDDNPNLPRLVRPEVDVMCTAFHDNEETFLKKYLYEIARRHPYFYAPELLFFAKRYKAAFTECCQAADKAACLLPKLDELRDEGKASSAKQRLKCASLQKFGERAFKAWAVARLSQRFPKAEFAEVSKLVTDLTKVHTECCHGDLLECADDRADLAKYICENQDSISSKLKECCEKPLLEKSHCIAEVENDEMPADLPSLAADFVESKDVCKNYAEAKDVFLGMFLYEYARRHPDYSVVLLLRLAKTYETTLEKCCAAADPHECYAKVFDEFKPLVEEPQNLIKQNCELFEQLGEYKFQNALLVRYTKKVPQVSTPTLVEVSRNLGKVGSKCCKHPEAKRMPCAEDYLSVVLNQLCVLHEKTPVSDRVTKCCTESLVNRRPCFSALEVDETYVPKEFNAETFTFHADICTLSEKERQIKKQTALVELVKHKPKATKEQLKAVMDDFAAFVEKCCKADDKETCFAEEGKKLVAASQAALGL

For `O=C(O)CCCc1ccc(N(CCCl)CCCl)cc1` [Chlorambucil], the “increase of median Tmax by food intake” value [1] is listed as 2 fold, the “reduction of dose-adjusted AUC by food intake” value [1] is listed as 20% and the “reduction of dose-adjusted Cmax by food intake” value [1] is listed as 55%. For the same molecule, the “Chlorambucil (Area %)” value ([2]; t 0 h) was 98.3 Area %, the “Chlorambucil (Area %)” value ([2]; t 1 h) was 85.3 Area % and the “Chlorambucil (Area %)” value ([2]; t 2 h) was 74.8 Area %. For the same molecule, the “Chlorambucil (Area %)” value ([2]; t 3 h) was 64.4 Area %, the “Chlorambucil (Area %)” value ([2]; t 4 h) was 58.9 Area % and the “Chlorambucil (Area %)” value ([2]; t 5 h) was 53.1 Area %. The “absorbed from the gastrointestinal tract” value [3] was greater than 70%, the “bound to plasma proteins” value [4] was 99% and the “solubility in acetone and in alcohol” value ([5]; acetone, alcohol) was “freely soluble”. For the same molecule, the solubility in water ([5]; water) was “practically insoluble”.
